The source of these data is patent US12577245B2, “Sulfonyl benzamide derivatives as Bcl-2 inhibitors” (ASCENTAGE PHARMA (SUZHOU) CO., LTD., priority 2021, dated 2026).

In this test the target is Bcl-2 G101V (Homo sapiens, UniProt P10415, G101V). Briefly: Bcl-2 G101V inhibition, fluorescence polarization (Flu-BIM tracer) binding assay. Particulars: FP; 20 nM Bcl2, 5 nM Flu-BIM, 1 h incubation; read-out: Bcl-2 G101V (FP).
As for `CC1(C)CCC(CN2CCN(c3ccc(C(=O)NS(=O)(=O)c4ccc(NC[C@H]5CC[C@](C)(O)CC5)c([N+](=O)[O-])c4)c(Oc4cnc5[nH]ccc5c4)c3)CC2)=C(c2cc(-c3ccc(F)cc3F)cs2)C1` [Example 43, 2-((1H-pyrrolo[2,3-b]pyridin-5-yl)oxy)-4-(4-((2-(4-(2,4-difluorophenyl)thiophen-2-yl)-4,4-dimethylcyclohex-1-en-1-yl)methyl)piperazin-1-yl)-N-((4-((((1r,4r)-4-hydroxy-4-methylcyclohexyl)methyl)amino)-3-nitrophenyl)sulfonyl)benzamide], the IC50 came out at 33.7 nM. As for `CC1(C)CCC(CN2CCN(c3ccc(C(=O)NS(=O)(=O)c4ccc(NC[C@H]5COCCO5)c([N+](=O)[O-])c4)c(Oc4cnc5[nH]ccc5c4)c3)CC2)=C(c2cc(-c3ccc(Cl)cc3F)cs2)C1` [Example 44, (S)—N-((4-(((1,4-dioxan-2-yl)methyl)amino)-3-nitrophenyl)sulfonyl)-2-((1H-pyrrolo[2,3-b]pyridin-5-yl)oxy)-4-(4-((2-(4-(4-chloro-2-fluorophenyl)thiophen-2-yl)-4,4-dimethylcyclohex-1-en-1-yl)methyl)piperazin-1-yl)benzamide], the IC50 is 46.3 nM. `CC1(C)CCC(CN2CCN(c3ccc(C(=O)NS(=O)(=O)c4ccc(NC[C@H]5CC[C@](C)(O)CC5)c([N+](=O)[O-])c4)c(Oc4cnc5[nH]ccc5c4)c3)CC2)=C(c2cc(-c3cc(F)c(F)c(F)c3)cs2)C1` [Example 45, 2-((1H-pyrrolo[2,3-b]pyridin-5-yl)oxy)-4-(4-((4,4-dimethyl-2-(4-(3,4,5-trifluorophenyl)thiophen-2-yl)cyclohex-1-en-1-yl)methyl)piperazin-1-yl)-N-((4-((((1r,4r)-4-hydroxy-4-methylcyclohexyl)methyl)amino)-3-nitrophenyl)sulfonyl)benzamide]: the IC50 is 49 nM. The same measure for `CC1(C)CCC(CN2CCN(c3ccc(C(=O)NS(=O)(=O)c4ccc(NC[C@H]5CC[C@](C)(O)CC5)c([N+](=O)[O-])c4)c(Oc4cnc5[nH]ccc5c4)c3)CC2)=C(c2cc(-c3ccc(F)c(F)c3F)cs2)C1` [Example 46, 2-((1H-pyrrolo[2,3-b]pyridin-5-yl)oxy)-4-(4-((4,4-dimethyl-2-(4-(2,3,4-trifluorophenyl)thiophen-2-yl)cyclohex-1-en-1-yl)methyl)piperazin-1-yl)-N-((4-((((1r,4r)-4-hydroxy-4-methylcyclohexyl)methyl)amino)-3-nitrophenyl)sulfonyl)benzamide]: 43.5 nM; for `CC1(C)CCC(CN2CCN(c3ccc(C(=O)NS(=O)(=O)c4ccc(NC[C@H]5COCCO5)c([N+](=O)[O-])c4)c(Oc4cnc5[nH]ccc5c4)c3)CC2)=C(c2cc(-c3ccc(C(F)F)cc3)cs2)C1` [Example 48, (S)—N-((4-(((1,4-dioxan-2-yl)methyl)amino)-3-nitrophenyl)sulfonyl)-2-((1H-pyrrolo[2,3-b]pyridin-5-yl)oxy)-4-(4-((2-(4-(4-(difluoromethyl)phenyl)thiophen-2-yl)-4,4-dimethylcyclohex-1-en-1-yl)methyl)piperazin-1-yl)benzamide]: 36.7 nM.

`CC1(C)CCC(CN2CCN(c3ccc(C(=O)NS(=O)(=O)c4ccc(NC[C@H]5CC[C@](C)(O)CC5)c([N+](=O)[O-])c4)c(Oc4cnc5[nH]ccc5c4)c3)CC2)=C(c2cc(-c3ccc(C(F)F)cc3)cs2)C1` [Example 49, 2-((1H-pyrrolo[2,3-b]pyridin-5-yl)oxy)-4-(4-((2-(4-(4-(difluoromethyl)phenyl)thiophen-2-yl)-4,4-dimethylcyclohex-1-en-1-yl)methyl)piperazin-1-yl)-N-((4-((((1r,4r)-4-hydroxy-4-methylcyclohexyl)methyl)amino)-3-nitrophenyl)sulfonyl)benzamide]: the IC50 stood at 43.6 nM. Next, `CC1(C)CCC(CN2CCN(c3ccc(C(=O)NS(=O)(=O)c4ccc(NC[C@H]5COCCO5)c([N+](=O)[O-])c4)c(Oc4cnc5[nH]ccc5c4)c3)CC2)=C(c2cc(-c3ccc(F)c(F)c3)cs2)C1` [Example 50, (S)—N-((4-(((1,4-dioxan-2-yl)methyl)amino)-3-nitrophenyl)sulfonyl)-2-((1H-pyrrolo[2,3-b]pyridin-5-yl)oxy)-4-(4-((2-(4-(3,4-difluorophenyl)thiophen-2-yl)-4,4-dimethylcyclohex-1-en-1-yl)methyl)piperazin-1-yl)benzamide]: 42.7 nM.

As to `CC1(C)CCC(CN2CCN(c3ccc(C(=O)NS(=O)(=O)c4ccc(NC[C@H]5CC[C@](C)(O)CC5)c([N+](=O)[O-])c4)c(Oc4cnc5[nH]ccc5c4)c3)CC2)=C(c2cc(-c3ccc(F)c(F)c3)cs2)C1` [Example 51, 2-((1H-pyrrolo[2,3-b]pyridin-5-yl)oxy)-4-(4-((2-(4-(3,4-difluorophenyl)thiophen-2-yl)-4,4-dimethylcyclohex-1-en-1-yl)methyl)piperazin-1-yl)-N-((4-((((1r,4r)-4-hydroxy-4-methylcyclohexyl)methyl)amino)-3-nitrophenyl)sulfonyl)benzamide], the IC50 came out at 45.5 nM.

With `CC1(C)CCC(CN2CCN(c3ccc(C(=O)NS(=O)(=O)c4ccc(NC[C@H]5CC[C@](C)(O)CC5)c([N+](=O)[O-])c4)c(Oc4cnc5[nH]ccc5c4)c3)CC2)=C(c2cc(-c3cc(F)c(F)cc3F)cs2)C1` [Example 53, 2-((1H-pyrrolo[2,3-b]pyridin-5-yl)oxy)-4-(4-((4,4-dimethyl-2-(4-(2,4,5-trifluorophenyl)thiophen-2-yl)cyclohex-1-en-1-yl)methyl)piperazin-1-yl)-N-((4-((((1r,4r)-4-hydroxy-4-methylcyclohexyl)methyl)amino)-3-nitrophenyl)sulfonyl)benzamide], the IC50 amounted to 36.6 nM. Next, `CC1(C)CCC(CN2CCN(c3ccc(C(=O)NS(=O)(=O)c4ccc(NC[C@H]5CC[C@](C)(O)CC5)c([N+](=O)[O-])c4)c(Oc4cnc5[nH]ccc5c4)c3)CC2)=C(c2cc(-c3c(F)ccc(F)c3F)cs2)C1` [Example 54, 2-((1H-pyrrolo[2,3-b]pyridin-5-yl)oxy)-4-(4-((4,4-dimethyl-2-(4-(2,3,6-trifluorophenyl)thiophen-2-yl)cyclohex-1-en-1-yl)methyl)piperazin-1-yl)-N-((4-((((1r,4r)-4-hydroxy-4-methylcyclohexyl)methyl)amino)-3-nitrophenyl)sulfonyl)benzamide]: 33.2 nM; `CC1(C)CCC(CN2CCN(c3ccc(C(=O)NS(=O)(=O)c4ccc(NC[C@H]5CC[C@](C)(O)CC5)c([N+](=O)[O-])c4)c(Oc4cnc5[nH]ccc5c4)c3)CC2)=C(c2cc(-c3cc(F)cc(C#N)c3)cs2)C1` [Example 55, 2-((1H-pyrrolo[2,3-b]pyridin-5-yl)oxy)-4-(4-((2-(4-(3-cyano-5-fluorophenyl)thiophen-2-yl)-4,4-dimethylcyclohex-1-en-1-yl)methyl)piperazin-1-yl)-N-((4-((((1r,4r)-4-hydroxy-4-methylcyclohexyl)methyl)amino)-3-nitrophenyl)sulfonyl)benzamide]: 47.5 nM; `CC1(C)CCC(CN2CCN(c3ccc(C(=O)NS(=O)(=O)c4ccc(NC[C@H]5CC[C@](C)(O)CC5)c([N+](=O)[O-])c4)c(Oc4cnc5[nH]ccc5c4)c3)CC2)=C(c2cc(-c3ccc(C(C)(C)C#N)cc3)cs2)C1` [Example 56, 2-((1H-pyrrolo[2,3-b]pyridin-5-yl)oxy)-4-(4-((2-(4-(4-(2-cyanopropan-2-yl)phenyl)thiophen-2-yl)-4,4-dimethylcyclohex-1-en-1-yl)methyl)piperazin-1-yl)-N-((4-((((1r,4r)-4-hydroxy-4-methylcyclohexyl)methyl)amino)-3-nitrophenyl)sulfonyl)benzamide]: 27.6 nM. Next, `CN(C)c1ccccc1-c1csc(C2=C(CN3CCN(c4ccc(C(=O)NS(=O)(=O)c5ccc(NC[C@H]6COCCO6)c([N+](=O)[O-])c5)c(Oc5cnc6[nH]ccc6c5)c4)CC3)CCC(C)(C)C2)c1` [Example 58, (S)—N-((4-(((1,4-dioxan-2-yl)methyl)amino)-3-nitrophenyl)sulfonyl)-2-((1H-pyrrolo[2,3-b]pyridin-5-yl)oxy)-4-(4-((2-(4-(2-(dimethylamino)phenyl)thiophen-2-yl)-4,4-dimethylcyclohex-1-en-1-yl)methyl)piperazin-1-yl)benzamide]: 34.1 nM; `CC1(C)CCC(CN2CCN(c3ccc(C(=O)NS(=O)(=O)c4ccc(NC[C@H]5CC[C@](C)(O)CC5)c([N+](=O)[O-])c4)c(Oc4cnc5[nH]ccc5c4)c3)CC2)=C(c2cc(-c3ccc(C(C)(C)O)cc3)cs2)C1` [Example 59, 2-((1H-pyrrolo[2,3-b]pyridin-5-yl)oxy)-N-((4-((((1r,4r)-4-hydroxy-4-methylcyclohexyl)methyl)amino)-3-nitrophenyl)sulfonyl)-4-(4-((2-(4-(4-(2-hydroxypropan-2-yl)phenyl)thiophen-2-yl)-4,4-dimethylcyclohex-1-en-1-yl)methyl)piperazin-1-yl)benzamide]: 38.5 nM. Next, `CC1(C)CCC(CN2CCN(c3ccc(C(=O)NS(=O)(=O)c4ccc(NC[C@H]5CC[C@](C)(O)CC5)c([N+](=O)[O-])c4)c(Oc4cnc5[nH]ccc5c4)c3)CC2)=C(c2cc(-c3ccc(C(O)(C(F)(F)F)C(F)(F)F)cc3)cs2)C1` [Example 60, 2-((1H-pyrrolo[2,3-b]pyridin-5-yl)oxy)-4-(4-((2-(4-(4-(1,1,1,3,3,3-hexafluoro-2-hydroxypropan-2-yl)phenyl)thiophen-2-yl)-4,4-dimethylcyclohex-1-en-1-yl)methyl)piperazin-1-yl)-N-((4-((((1r,4r)-4-hydroxy-4-methylcyclohexyl)methyl)amino)-3-nitrophenyl)sulfonyl)benzamide]: 34.1 nM. For `CC1(C)CCC(CN2CCN(c3ccc(C(=O)NS(=O)(=O)c4ccc(NC[C@H]5CC[C@](C)(O)CC5)c([N+](=O)[O-])c4)c(Oc4cnc5[nH]ccc5c4)c3)CC2)=C(c2cc(-c3ccc(C(C)(C)O)cc3F)cs2)C1` [Example 62, 2-((1H-pyrrolo[2,3-b]pyridin-5-yl)oxy)-4-(4-((2-(4-(2-fluoro-4-(2-hydroxypropan-2-yl)phenyl)thiophen-2-yl)-4,4-dimethylcyclohex-1-en-1-yl)methyl)piperazin-1-yl)-N-((4-((((1r,4r)-4-hydroxy-4-methylcyclohexyl)methyl)amino)-3-nitrophenyl)sulfonyl)benzamide], the IC50 is 23.7 nM.
